In patent US10730905B2, “Substituted heteropentadieno-pyrrolopyrimidine ribonucleosides for therapeutic use” (USTAV ORGANICKE CHEMIE A BIOCHEMIE AV CR, V.V.I., priority 2016, dated 2020):

Experiments:
[1] = system: HCT116p53 wt (human colorectal cancer, wild-type); assay: MTT cytotoxic test, HCT116; assay type: cell-based; settings: HCT-116, HCT116 cells, p53 wild type
Source text: (§1) MTT test (Nosková V. et al., Neoplasma 2002, 49, 418-425) was used for in vitro evaluation of antitumor activities of newly synthesized compounds on cell lines derived from normal tissues or tumors. Specifically, cell lines K562 (human acute myeloid leukemia); K562-Tax (human acute myeloid leukemia, paclitaxel resistant subline, overexpress multiple drug resistant protein PgP); CEM (T-lymfoblastic leukemia); CEM-DNR-bulk (T-lymfoblastic leukemia, doxorubicin resistant); A549 (human lung adenocarcinoma); HCT116p53 wt (human colorectal cancer, wild-type); HCT116p53−/− (human colorectal cancer, mutant p53) a U2OS (human bone osteosarcoma) were used. Express characteristics, susceptibility profiles of classic antitumor drugs as well as methodology of cytotoxic MTT test have been repeatedly published (Denizot, F.; Lang, R., J. Immunol. Meth. 1986, 89, 271-277; Noskova, V., see above; S̆arek J. et al., J, Med. Chem., 2003).

[2] = system: U2OS (human bone osteosarcoma); assay: MTT cytotoxic test, U2OS; assay type: cell-based; settings: U2OS cells
Source text: as §1

[3] = system: HCT116p53−/− (human colorectal cancer, mutant p53); assay: MTT cytotoxic test, HCT116p53; assay type: cell-based; settings: HCT116p53 cells (p53 −/−)
Source text: as §1

[4] = system: K562-Tax (human acute myeloid leukemia, paclitaxel resistant subline); assay: MTT cytotoxic test, K562-TAX; assay type: cell-based; settings: K562-TAX cells
Source text: as §1

[5] = system: CCRF-CEM (CEM, T-lymfoblastic leukemia); assay: MTT cytotoxic test, CCRF-CEM; assay type: cell-based; settings: Homo sapiens, CCRF-CEM cells
Source text: as §1

[6] = system: K562 (human acute myeloid leukemia); assay: MTT cytotoxic test, K562; assay type: cell-based; settings: K562 cells
Source text: as §1

[7] = MTT cytotoxic test, MRC-5; assay type: cell-based; settings: MRC-5 cells (normal fibroblasts), MRC-5 normal human fibroblasts
[8] = system: CEM-DNR-bulk (T-lymfoblastic leukemia, doxorubicin resistant); assay: MTT cytotoxic test, CEM-DNR; assay type: cell-based; settings: Homo sapiens, CEM-DNR cells
Source text: as §1

[9] = system: A549 (human lung adenocarcinoma); assay: MTT cytotoxic test, A549; assay type: cell-based; settings: A549 cells
Source text: as §1

SMILES	IC50 [1] [µM]	IC50 [2] [µM]	IC50 [3] [µM]	melting point	IC50 [4] [µM]	IC50 [5] [µM]	IC50 [6] [µM]	IC50 [7] [µM]	IC50 [8] [µM]	IC50 [9] [µM]
COc1ncnc2c1c1occc1n2[C@@H]1O[C@H](CO)[C@@H](O)[C@H]1O [Compound 1b, 4-Methoxy-8-(β-D-ribofuranosyl)-8H-furo[2′,3′:4,5]pyrrolo[2,3-d]pyrimidine]	0.2 to 0.9	0.2 to 0.9	0.2 to 0.9	216 to 219 °C	0.2 to 0.9	0.01 to 0.2	0.2 to 0.9	10 to 25	0.9 to 10	0.9 to 10
Cc1ncnc2c1c1occc1n2[C@@H]1O[C@H](CO)[C@@H](O)[C@H]1O [Compound 1a, 4-Methyl-8-(β-D-ribofuranosyl)-8H-furo[2′,3′:4,5]pyrrolo[2,3-d]pyrimidine]	0.2 to 0.9	0.2 to 0.9	0.2 to 0.9		0.9 to 10	0.2 to 0.9	0.2 to 0.9	25 to 50	25 to 50	0.9 to 10
CSc1ncnc2c1c1occc1n2[C@@H]1O[C@H](CO)[C@@H](O)[C@H]1O [Compound 1c]	0.2 to 0.9	0.2 to 0.9	0.2 to 0.9	213 to 217 °C	0.9 to 10	0.2 to 0.9	0.2 to 0.9	0.9 to 10	0.9 to 10	0.9 to 10
CN(C)c1ncnc2c1c1occc1n2[C@@H]1O[C@H](CO)[C@@H](O)[C@H]1O [Compound 1h, N,N-dimethyl-8-(β-D-ribofuranosyl)-8H-furo[2′,3′:4,5]pyrrolo[2,3-d]pyrimidin-4-amine]	25 to 50	25 to 50	25 to 50	212 to 255 °C (dec.)	25 to 50	25 to 50	25 to 50	25 to 50	25 to 50	25 to 50
Nc1ncnc2c1c1occc1n2[C@@H]1O[C@H](CO)[C@@H](O)[C@H]1O [Compound 1d, 8-(β-D-ribofuranosyl)-8H-furo[2′,3′:4,5]pyrrolo[2,3-d]pyrimidin-4-amine]	25 to 50	0.9 to 10	25 to 50	246 to 253 °C	25 to 50	25 to 50	0.9 to 10	25 to 50	25 to 50	25 to 50
OC[C@H]1O[C@@H](n2c3ccoc3c3c(-c4ccco4)ncnc32)[C@H](O)[C@@H]1O [Compound 1e, 4-(Furan-2-yl)-8-(β-D-ribofuranosyl)-8H-furo[2′,3′:4,5]pyrrolo[2,3-d]pyrimidine]	25 to 50	0.9 to 10	25 to 50		0.9 to 10	0.2 to 0.9	0.9 to 10	25 to 50	25 to 50	25 to 50
Cn1ccc2c1c1c(-c3ccoc3)ncnc1n2[C@@H]1O[C@H](CO)[C@@H](O)[C@H]1O [Compound 2f, 4-(Furan-3-yl)-5-methyl-8-(β-D-ribofuranosyl)-5,8dihydropyrrolo[2′,3′:4,5]pyrrolo[2,3-d]pyrimidine]	25 to 50	0.9 to 10	0.9 to 10	202 to 207 °C	25 to 50	25 to 50	0.9 to 10	25 to 50	25 to 50	25 to 50
Cn1ccc2c1c1c(-c3cc4ccccc4o3)ncnc1n2[C@@H]1O[C@H](CO)[C@@H](O)[C@H]1O [Compound 2g, 4-(Benzofuran-2-yl)-5-methyl-8-(β-D-ribofuranosyl)-5,8-dihydropyrrolo[2′,3′:4,5]pyrrolo[2,3-d]pyrimidine]	25 to 50	25 to 50	25 to 50	145 to 154 °C	25 to 50	10 to 25	25 to 50	25 to 50	25 to 50	25 to 50
OC[C@H]1O[C@@H](n2c3ccoc3c3c(-c4cc5ccccc5o4)ncnc32)[C@H](O)[C@@H]1O [Compound 1g, 4-(Benzofuran-2-yl)-8-(β-D-ribofuranosyl)-8H-furo[2′,3′:4,5]pyrrolo[2,3-d]pyrimidine]	25 to 50	25 to 50	25 to 50		10 to 25	10 to 25	25 to 50	25 to 50	25 to 50	25 to 50
OC[C@H]1O[C@@H](n2c3ccoc3c3c(-c4ccoc4)ncnc32)[C@H](O)[C@@H]1O [Compound 1f, 4-(Furan-3-yl)-8-(β-D-ribofuranosyl)-8H-furo[2′,3′:4,5]pyrrolo[2,3-d]pyrimidine]	10 to 25	0.2 to 0.9	10 to 25		0.9 to 10	0.2 to 0.9	0.2 to 0.9	25 to 50	25 to 50	25 to 50
CN(C)c1ncnc2c1c1c(ccn1C)n2[C@@H]1O[C@H](CO)[C@@H](O)[C@H]1O [Compound 2h, N,N,5-trimethyl-8-(β-D-ribofuranosyl)-5,8-dihydropyrrolo[2′,3′:4,5]pyrrolo[2,3-d]pyrimidin-4-amine]	25 to 50	25 to 50	25 to 50	99 to 106 °C	25 to 50	25 to 50	25 to 50	25 to 50	25 to 50	25 to 50
CSc1ncnc2c1c1c(ccn1C)n2[C@@H]1O[C@H](CO)[C@@H](O)[C@H]1O [Compound 2c, 5-Methyl-4-(methylsulfanyl)-8-(β-D-ribofuranosyl)-5,8-dihydropyrrolo[2′,3′:4,5]pyrrolo-[2,3-d]-pyrimidine]	0.2 to 0.9	0.9 to 10	0.2 to 0.9	212 to 214 °C	25 to 50	0.2 to 0.9	0.2 to 0.9	25 to 50	25 to 50	25 to 50
Cc1ncnc2c1c1c(ccn1C)n2[C@@H]1O[C@H](CO)[C@@H](O)[C@H]1O [Compound 2a, 4,5-Dimethyl-8-(β-D-ribofuranosyl)-5,8-dihydropyrrolo[2′,3′:4,5]pyrrolo[2,3-d]pyrimidine]	0.2 to 0.9	0.2 to 0.9	0.2 to 0.9	237 to 241 °C	25 to 50	0.2 to 0.9	0.2 to 0.9	25 to 50	25 to 50	
Cn1ccc2c1c1c(Cl)ncnc1n2[C@@H]1O[C@H](CO)[C@@H](O)[C@H]1O [Compound 2i, 4-chloro-5-methyl-8-(β-D-ribofuranosyl)-5,8-dihydropyrrolo[2′,3′:4,5]pyrrolo[2,3-d]pyrimidine]	0.01 to 0.2	0.9 to 10	0.01 to 0.2	217 to 219 °C	25 to 50	0.01 to 0.2	0.01 to 0.2	25 to 50	25 to 50	0.9 to 10
